Measured values published in patent US8030354B2, “Substituted biphenyl GPR40 modulators” (Amgen Inc., priority 2007, dated 2011).

These compounds were tested against GPR40 (Homo sapiens, UniProt O14842) (assay: Cell-based aequorin assay (CHO cells stably expressing GPR40 and aequorin)). Details: activation of human GPR40, CHO cells, 0.01% HSA.
Parameters: expressed in transfected cells; host or cells: CHO cells stably transfected with GPR40 and aequorin
Protocol: Briefly, the Aequorin assays were performed on doubly stable CHO cells expressing GPR40 and Aequorin DNA. […] The luminescence was recorded over a period of 20 seconds with a Microlumat luminometer (Berthold). […] The inositol phosphate assay was performed on an A9 cell line stably transfected with GPR40 (A9_GPR40). The cells were incubated with different concentrations of compounds and [^3H] inositol accumulation was measured after 1 hour.
Cell-based aequorin assays were employed to characterize the modulatory activity of compounds on the GPR40 signaling pathway. In an exemplary assay, CHO cells were stably transfected with both GPR40 and Aequorin (Euroscreen). Cells were detached from the tissue culture dish with 2 mL of trypsin (0.25%(w/v)). Trypsinization was halted with 28 mL of Hanks Buffered Salt Solution containing 20 mM Hepes (H/HBSS) and 0.01% fatty acid-free human serum albumin (HSA). Coelantrazine is added to 1 ug/mL, and the cells were incubated for 2 hours at room temperature. Compounds were dissolved in DMSO for preparation of 10 mM stock solutions. Compounds were diluted in H/HBSS containing 0.01% HSA. Serial dilutions of the test compounds were prepared to determine dose response.
Aequorin luminescence measurements were made using an EG&G Berthold 96-well luminometer, and the response was measured over a 20 second interval after cells and compounds were mixed. The maximum relative light units was plotted to determine dose response. The EC50 (effective concentration to reach 50% maximal response) was determined from the dose response plot.

Sequence of GPR40 (O14842 whole entry): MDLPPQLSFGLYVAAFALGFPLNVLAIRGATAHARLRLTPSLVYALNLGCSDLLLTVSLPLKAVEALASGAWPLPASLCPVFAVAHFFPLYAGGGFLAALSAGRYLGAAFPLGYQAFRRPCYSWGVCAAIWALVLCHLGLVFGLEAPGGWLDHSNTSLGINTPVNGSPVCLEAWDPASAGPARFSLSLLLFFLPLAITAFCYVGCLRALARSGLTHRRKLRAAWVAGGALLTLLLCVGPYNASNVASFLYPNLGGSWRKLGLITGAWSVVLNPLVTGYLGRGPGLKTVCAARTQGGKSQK

| SMILES | EC50 [µM] |
| --- | --- |
| C=C(C)[C@@H](CC(=O)O)c1cccc(OCc2ccc(-c3cc(OC)ccc3F)c(C(C)(C)C)c2)c1 (single isomer, unassigned) [Example 48, (3R)-3-(3-(((2-(1,1-Dimethylethyl)-2′-fluoro-5′-(methyloxy)-1,1′-biphenyl-4-yl)methyl)oxy)phenyl)-4-methyl-4-pentenoic acid or (3S)-3-(3-(((2-(1,1-dimethylethyl)-2′-fluoro-5′-(methyloxy)-1,1′-biphenyl-4-yl)methyl)oxy)phenyl)-4-methyl-4-pentenoic acid] | 1 to 10 |
| COc1ccc(F)c(-c2ccc(COc3cccc([C@@H](CC(=O)O)C(C)C)c3)cc2C(C)(C)C)c1 (single isomer, unassigned) [Example 52] | 1 to 10 |
| CCCCOc1cc(COc2cccc([C@@H](CC(=O)O)C(C)C)c2)ccc1-c1cc(OC)ccc1F (single isomer, unassigned) [Example 53] | 1 to 10 |
| C=CC[C@H](CC(=O)O)c1cccc(OCc2ccc(-c3cc(OC)ccc3F)c(OCCCC)c2)c1 (single isomer, unassigned) [Example 54, (3R)-3-(3-(((2-(Butyloxy)-2′-fluoro-5′-(methyloxy)-1,1′-biphenyl-4-yl)methyl)oxy)phenyl)-5-hexenoic acid or (3S)-3-(3-(((2-(butyloxy)-2′-fluoro-5′-(methyloxy)-1,1′-biphenyl-4-yl)methyl)oxy)phenyl)-5-hexenoic acid] | 1 to 10 |
| COc1cccc(-c2ccc(COc3cccc([C@@H](CC(=O)O)C(C)C)c3)cc2C(C)(C)C)c1 (single isomer, unassigned) [Example 58, (3S)-3-(3-(((2-(1,1-Dimethylethyl)-3′-(methyloxy)-1,1′-biphenyl-4-yl)methyl)oxy)phenyl)-4-methylpentanoic acid or (3R)-3-(3-(((2-(1,1-dimethylethyl)-3′-(methyloxy)-1,1′-biphenyl-4-yl)methyl)oxy)phenyl)-4-methylpentanoic acid] | 1 to 10 |
| COc1ccc(F)c(-c2ccc(COc3cccc(CC(C)C(=O)O)c3)cc2C2=CCCC2(C)C)c1 (single isomer, unassigned) [Example 62.1, (2R)-3-(3-(((2-(5,5-Dimethyl-1-cyclopenten-1-yl)-2′-fluoro-5′-(methyloxy)-1,1′-biphenyl-4-yl)methyl)oxy)phenyl)-2-methylpropanoic acid or (2S)-3-(3-(((2-(5,5-dimethyl-1-cyclopenten-1-yl)-2′-fluoro-5′-(methyloxy)-1,1′-biphenyl-4-yl)methyl)oxy)phenyl)-2-methylpropanoic acid] | 0.1 to 1 |
| COc1ccc(F)c(-c2ccc(COc3cccc(CC(C)C(=O)O)c3)cc2C2CCCC2(C)C)c1 (single isomer, unassigned) [Example 62.2, (2R)-3-(3-(((2-(2,2-Dimethylcyclopentyl)-2′-fluoro-5′-(methyloxy)-1,1′-biphenyl-4-yl)methyl)oxy)phenyl)-2-methylpropanoic acid or (2S)-3-(3-(((2-(2,2-dimethylcyclopentyl)-2′-fluoro-5′-(methyloxy)-1,1′-biphenyl-4-yl)methyl)oxy)phenyl)-2-methylpropanoic acid] | 0.1 to 1 |
| COc1ccc(F)c(-c2ccc(COc3cccc(C[C@H](C)C(=O)O)c3)cc2C2=CCCC2(C)C)c1 (single isomer, unassigned) [Example 63.1, (2S)-3-(3-(((2-(5,5-Dimethyl-1-cyclopenten-1-yl)-2′-fluoro-5′-(methyloxy)-1,1′-biphenyl-4-yl)methyl)oxy)phenyl)-2-methylpropanoic acid or (2R)-3-(3-(((2-(5,5-dimethyl-1-cyclopenten-1-yl)-2′-fluoro-5′-(methyloxy)-1,1′-biphenyl-4-yl)methyl)oxy)phenyl)-2-methylpropanoic acid] | 0.1 to 1 |
| COc1ccc(F)c(-c2ccc(COc3cccc(CC(C)C(=O)O)c3)cc2C2CCCC2(C)C)c1 (single isomer, unassigned) [Example 63.2, (2S)-3-(3-(((2-(2,2-Dimethylcyclopentyl)-2′-fluoro-5′-(methyloxy)-1,1′-biphenyl-4-yl)methyl)oxy)phenyl)-2-methylpropanoic acid or (2R)-3-(3-(((2-(2,2-dimethylcyclopentyl)-2′-fluoro-5′-(methyloxy)-1,1′-biphenyl-4-yl)methyl)oxy)phenyl)-2-methylpropanoic acid] | 0.1 to 1 |
| COc1ccc(F)c(-c2ccc(COc3cccc(C(C)CC(=O)O)c3)cc2OCC(C)(C)C)c1 (single isomer, unassigned) [Example 64.1, (3R)-3-(3-(((2-((2,2-Dimethylpropyl)oxy)-2′-fluoro-5′-(methyloxy)-1,1′-biphenyl-4-yl)methyl)oxy)phenyl)butanoic acid or (3S)-3-(3-(((2-((2,2-dimethylpropyl)oxy)-2′-fluoro-5′-(methyloxy)-1,1′-biphenyl-4-yl)methyl)oxy)phenyl)butanoic acid] | 0.1 to 1 |
| CCCCOc1cc(COc2cccc(C(C)CC(=O)O)c2)ccc1-c1cccc(SC)c1 (single isomer, unassigned) [Example 64.2, (3R)-3-(3-(((2-(Butyloxy)-3′-(methylsulfanyl)-1,1′-biphenyl-4-yl)methyl)oxy)phenyl)butanoic acid or (3S)-3-(3-(((2-(butyloxy)-3′-(methylsulfanyl)-1,1′-biphenyl-4-yl)methyl)oxy)phenyl)butanoic acid] | 1 to 10 |
| COc1ccc(F)c(-c2cc(C)c(COc3cccc(C(C)CC(=O)O)c3)cc2C(C)(C)C)c1 (single isomer, unassigned) [Example 64.3, (3R)-3-(3-(((2-(1,1-Dimethylethyl)-2′-fluoro-5-methyl-5′-(methyloxy)-1,1′-biphenyl-4-yl)methyl)oxy)phenyl)butanoic acid or (3S)-3-(3-(((2-(1,1-dimethylethyl)-2′-fluoro-5-methyl-5′-(methyloxy)-1,1′-biphenyl-4-yl)methyl)oxy)phenyl)butanoic acid] | 1 to 10 |
| CCC/C=C/c1cc(COc2cccc(C(C)CC(=O)O)c2)ccc1-c1cc(OC)ccc1F (single isomer, unassigned) [Example 64.8, (3R)-3-(3-(((2′-Fluoro-5′-(methyloxy)-2-((1E)-1-pentenyl)-1,1′-biphenyl-4-yl)methyl)oxy)phenyl)butanoic acid or (3S)-3-(3-(((2′-fluoro-5′-(methyloxy)-2-((1E)-1-pentenyl)-1,1′-biphenyl-4-yl)methyl)oxy)phenyl)butanoic acid] | 0.1 to 1 |
| COc1ccc(F)c(-c2ccc(COc3cccc(C(C)CC(=O)O)c3)cc2/C=C/C2CCCCC2)c1 (single isomer, unassigned) [Example 64.9, (3R)-3-(3-(((2-((E)-2-Cyclohexylethenyl)-2′-fluoro-5′-(methyloxy)-1,1′-biphenyl-4-yl)methyl)oxy)phenyl)butanoic acid or (3S)-3-(3-(((2-((E)-2-cyclohexylethenyl)-2′-fluoro-5′-(methyloxy)-1,1′-biphenyl-4-yl)methyl)oxy)phenyl)butanoic acid] | 0.1 to 1 |
| CSc1cccc(-c2ccc(COc3cccc(C(C)CC(=O)O)c3)cc2C(C)(C)C)c1 (single isomer, unassigned) [Example 64.23, (3R)-3-(3-(((2-(1,1-Dimethylethyl)-3′-(methylsulfanyl)-1,1′-biphenyl-4-yl)methyl)oxy)phenyl)butanoic acid or (3S)-3-(3-(((2-(1,1-dimethylethyl)-3′-(methylsulfanyl)-1,1′-biphenyl-4-yl)methyl)oxy)phenyl)butanoic acid] | 1 to 10 |
| CCOc1cccc(-c2ccc(COc3cccc(C(C)CC(=O)O)c3)cc2C(C)(C)C)c1 (single isomer, unassigned) [Example 64.24, (3R)-3-(3-(((2-(1,1-Dimethylethyl)-3′-(ethyloxy)-1,1′-biphenyl-4-yl)methyl)oxy)phenyl)butanoic acid or (3S)-3-(3-(((2-(1,1-dimethylethyl)-3′-(ethyloxy)-1,1′-biphenyl-4-yl)methyl)oxy)phenyl)butanoic acid] | 1 to 10 |
| COc1ccc(F)c(-c2ccc(C(C)Oc3cccc(C(C)CC(=O)O)c3)cc2C(C)(C)C)c1 (single isomer, unassigned) [Example 64.25] | 1 to 10 |
| CCCCOc1cc(COc2cccc(C(C)CC(=O)O)c2)ccc1-c1cccc(F)c1 (single isomer, unassigned) [Example 64.26, (3R)-3-(3-(((2-(butyloxy)-3′-fluoro-1,1′-biphenyl-4-yl)methyl)oxy)phenyl)butanoic acid or (3S)-3-(3-(((2-(butyloxy)-3′-fluoro-1,1′-biphenyl-4-yl)methyl)oxy)phenyl)butanoic acid] | 1 to 10 |
| CCCCOc1cc(COc2cccc(C(CC)CC(=O)O)c2)ccc1-c1cccc(OC)c1 (single isomer, unassigned) [Example 65.2, (3R)-3-(3-(((2-(Butyloxy)-3′-(methyloxy)-1,1′-biphenyl-4-yl)methyl)oxy)phenyl)pentanoic acid or (3S)-3-(3-(((2-(butyloxy)-3′-(methyloxy)-1,1′-biphenyl-4-yl)methyl)oxy)phenyl)pentanoic acid] | 0.1 to 1 |
